Common to all, as to experiment: relative viability (nuclei count vs DMSO), 5 days (fraction); higher = more cells survive
Compound in the assay “AZD5582 + Alpelisib”: C[C@@H](C(=O)N[C@@H](C1CCCCC1)C(=O)N2CCC[C@H]2C(=O)N[C@@H]3[C@@H](CC4=CC=CC=C34)OCC#CC#CCO[C@@H]5CC6=CC=CC=C6[C@@H]5NC(=O)[C@@H]7CCCN7C(=O)[C@H](C8CCCCC8)NC(=O)[C@H](C)NC)NC [AZD5582] + Cc1nc(NC(=O)N2CCC[C@H]2C(N)=O)sc1-c1ccnc(C(C)(C)C(F)(F)F)c1 [Alpelisib] (partner 2 µM)
The method in brief: (§1)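 Lung cancer cell lines were seeded in 1536-well plates and dosed by pin tool the next day, with either a single drug or a fixed anchor-drug dose combined with five library-drug doses (not always all listed) spaced in √10 steps. Five days later, one step fixed the cells and stained their nuclei (final 0.05% Triton X-100, 1% formaldehyde, 1 ug/ml Hoechst), and nuclei were counted on 4× images. Relative viability is the nuclei count in treated wells divided by the count in vehicle wells, and each value is the median of duplicate plates.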

Compound in assay [1]: Cn1nnc2c(C(N)=O)ncn2c1=O [Temozolomide] + Nc1nc2[nH]cc(CCc3ccc(C(=O)N[C@@H](CCC(=O)O)C(=O)O)cc3)c2c(=O)[nH]1 [Pemetrexed] (partner 0.2 µM)
The method in brief: as §1

Compound in a further assay: C[C@@H](C(=O)N[C@@H](C1CCCCC1)C(=O)N2CCC[C@H]2C(=O)N[C@@H]3[C@@H](CC4=CC=CC=C34)OCC#CC#CCO[C@@H]5CC6=CC=CC=C6[C@@H]5NC(=O)[C@@H]7CCCN7C(=O)[C@H](C8CCCCC8)NC(=O)[C@H](C)NC)NC [AZD5582]
The method in brief:
(§2)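 Five library-drug doses spaced by √10 were pinned onto vehicle-anchored 1536-well plates of lung cancer cell lines that had been kept overnight at 37 °C. Cells went 5 days without medium change, then were fixed, permeabilised and Hoechst-stained together, imaged at 4× and counted by MetaXpress. Viability is the ratio of treated-well to vehicle-well nuclei, taken as a median over plates. Plates required control CV below 25% and at least one doubling.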

Compound in another assay: Cn1nnc2c(C(N)=O)ncn2c1=O [Temozolomide]
The method in brief: as §2

For the cell line LU99A, the relative viability in the assay with AZD5582 + Alpelisib (first compound 0.001581 µM) was 0.554; with AZD5582 + Alpelisib (first compound 0.005 µM), 0.594; with AZD5582 + Alpelisib (first compound 0.01581 µM) it was 0.499; with AZD5582 + Alpelisib (first compound 0.05 µM) it was 0.611; in assay [1] (first compound 0.2 µM), 0.208; in assay [1] (first compound 0.6325 µM), 0.179. Besides, the relative viability amounted to 0.175 in assay [1] (first compound 2 µM); 0.185 in assay [1] (first compound 6.325 µM); 0.252 in assay [1] (first compound 20 µM); 1.07 in the assay with AZD5582 (0.001581 µM); 1.02 with AZD5582 (0.005 µM); 0.954 in the assay with AZD5582 (0.01581 µM). Moreover, the relative viability came out at 1.11 with AZD5582 (0.05 µM); 1.06 in the assay with Temozolomide (0.2 µM); 0.946 in the assay with Temozolomide (0.6325 µM); 1.03 in the assay with Temozolomide (2 µM); 0.97 with Temozolomide (6.325 µM); 1.03 in the assay with Temozolomide (20 µM).
HCC-366: the relative viability with AZD5582 + Alpelisib (first compound 0.001581 µM) was determined as 0.363; with AZD5582 + Alpelisib (first compound 0.005 µM), 0.625; in the assay with AZD5582 + Alpelisib (first compound 0.01581 µM), 0.389; in the assay with AZD5582 + Alpelisib (first compound 0.05 µM) it was 0.774; in assay [1] (first compound 0.2 µM) it was 0.143; in assay [1] (first compound 0.6325 µM), 0.17. Moreover, the relative viability in assay [1] (first compound 2 µM) turned out to be 0.188; in assay [1] (first compound 6.325 µM) it was 0.165; in assay [1] (first compound 20 µM), 0.155; with AZD5582 (0.001581 µM), 0.978; in the assay with AZD5582 (0.005 µM), 1.02; with AZD5582 (0.01581 µM), 0.978. For the same cell line, the relative viability came out at 1.08 with AZD5582 (0.05 µM); 0.939 with Temozolomide (0.2 µM); 1 with Temozolomide (0.6325 µM); 1.08 with Temozolomide (2 µM); 0.987 in the assay with Temozolomide (6.325 µM); 0.992 with Temozolomide (20 µM).
Turning to NCI-H1395, the relative viability was 1.08 in the assay with AZD5582 + Alpelisib (first compound 0.001581 µM); 1.19 with AZD5582 + Alpelisib (first compound 0.005 µM); 1.39 in the assay with AZD5582 + Alpelisib (first compound 0.05 µM); 0.931 in assay [1] (first compound 0.2 µM); 0.983 in assay [1] (first compound 0.6325 µM); 1.03 in assay [1] (first compound 2 µM). Further, the relative viability in assay [1] (first compound 6.325 µM) came out at 0.769; in assay [1] (first compound 20 µM), 0.754; with AZD5582 (0.001581 µM), 0.866; with AZD5582 (0.005 µM), 1; with AZD5582 (0.05 µM) it was 0.988; in the assay with Temozolomide (0.2 µM), 1. Further, the relative viability with Temozolomide (0.6325 µM) worked out at 0.96; with Temozolomide (2 µM), 0.906; with Temozolomide (6.325 µM) it was 0.745; with Temozolomide (20 µM) it was 0.867.
As for NCI-H2170, the relative viability in the assay with AZD5582 + Alpelisib (first compound 0.001581 µM) turned out to be 0.764; with AZD5582 + Alpelisib (first compound 0.005 µM), 0.809; with AZD5582 + Alpelisib (first compound 0.01581 µM), 0.867; in the assay with AZD5582 + Alpelisib (first compound 0.05 µM), 0.969; in assay [1] (first compound 0.6325 µM), 0.283; in assay [1] (first compound 2 µM) it was 0.264. Moreover, the relative viability in assay [1] (first compound 6.325 µM) turned out to be 0.253; in assay [1] (first compound 20 µM), 0.237; in the assay with AZD5582 (0.001581 µM) it was 0.956; with AZD5582 (0.005 µM) it was 0.985; with AZD5582 (0.01581 µM), 0.987; in the assay with AZD5582 (0.05 µM) it was 0.989. Besides, the relative viability in the assay with Temozolomide (0.6325 µM) is 1.06; in the assay with Temozolomide (2 µM) it was 1; in the assay with Temozolomide (6.325 µM), 0.858; with Temozolomide (20 µM) it was 0.582.
Regarding HOP-62, the relative viability with AZD5582 + Alpelisib (first compound 0.001581 µM) is 0.997; with AZD5582 + Alpelisib (first compound 0.005 µM), 0.934; in the assay with AZD5582 + Alpelisib (first compound 0.01581 µM) it was 0.87; with AZD5582 + Alpelisib (first compound 0.05 µM), 1.25; in assay [1] (first compound 0.2 µM) it was 0.302; in assay [1] (first compound 0.6325 µM), 0.264. Moreover, the relative viability amounted to 0.287 in assay [1] (first compound 2 µM); 0.314 in assay [1] (first compound 6.325 µM); 0.294 in assay [1] (first compound 20 µM); 0.875 with AZD5582 (0.001581 µM); 1.03 with AZD5582 (0.005 µM); 1.04 in the assay with AZD5582 (0.01581 µM). For the same cell line, the relative viability was 1.06 with AZD5582 (0.05 µM); 1.11 with Temozolomide (0.2 µM); 0.997 with Temozolomide (0.6325 µM); 1.04 with Temozolomide (2 µM); 0.926 in the assay with Temozolomide (6.325 µM); 1.01 in the assay with Temozolomide (20 µM).
On to NCI-H322M, for which the relative viability was 0.796 with AZD5582 + Alpelisib (first compound 0.001581 µM); 1.03 with AZD5582 + Alpelisib (first compound 0.005 µM); 0.515 with AZD5582 + Alpelisib (first compound 0.01581 µM); 0.889 with AZD5582 + Alpelisib (first compound 0.05 µM); 0.56 in assay [1] (first compound 0.2 µM); 0.591 in assay [1] (first compound 0.6325 µM). For the same cell line, the relative viability was determined as 0.635 in assay [1] (first compound 2 µM); 0.499 in assay [1] (first compound 6.325 µM); 0.536 in assay [1] (first compound 20 µM); 1.02 with AZD5582 (0.001581 µM); 1.15 in the assay with AZD5582 (0.005 µM); 0.938 with AZD5582 (0.01581 µM). Besides, the relative viability was determined as 1.03 with AZD5582 (0.05 µM); 0.931 in the assay with Temozolomide (0.6325 µM); 1 in the assay with Temozolomide (2 µM); 0.957 with Temozolomide (6.325 µM); 0.577 in the assay with Temozolomide (20 µM).
Regarding NCI-H661, the relative viability with AZD5582 + Alpelisib (first compound 0.001581 µM) came out at 0.592; in the assay with AZD5582 + Alpelisib (first compound 0.005 µM) it was 0.524; in the assay with AZD5582 + Alpelisib (first compound 0.01581 µM), 0.557; in the assay with AZD5582 + Alpelisib (first compound 0.05 µM) it was 0.521; in assay [1] (first compound 0.2 µM), 0.92; in assay [1] (first compound 0.6325 µM), 0.882. The relative viability in assay [1] (first compound 2 µM) turned out to be 1.01; in assay [1] (first compound 6.325 µM), 0.858; in assay [1] (first compound 20 µM), 0.759; in the assay with AZD5582 (0.001581 µM), 0.984; in the assay with AZD5582 (0.005 µM), 1; with AZD5582 (0.01581 µM), 0.984. The relative viability turned out to be 1.07 with AZD5582 (0.05 µM); 0.993 in the assay with Temozolomide (0.2 µM); 0.935 with Temozolomide (0.6325 µM); 1.04 with Temozolomide (2 µM); 0.947 in the assay with Temozolomide (6.325 µM); 0.843 in the assay with Temozolomide (20 µM).
Regarding NCI-H650, the relative viability with AZD5582 + Alpelisib (first compound 0.001581 µM) was found to be 1.06; in the assay with AZD5582 + Alpelisib (first compound 0.005 µM), 0.934; in the assay with AZD5582 + Alpelisib (first compound 0.01581 µM) it was 0.997; with AZD5582 + Alpelisib (first compound 0.05 µM) it was 0.863; in assay [1] (first compound 0.2 µM), 0.934; in assay [1] (first compound 0.6325 µM) it was 0.902. In addition, the relative viability came to 0.963 in assay [1] (first compound 2 µM); 0.96 in assay [1] (first compound 6.325 µM); 0.961 in assay [1] (first compound 20 µM); 0.842 with AZD5582 (0.001581 µM); 0.982 with AZD5582 (0.005 µM); 0.542 with AZD5582 (0.01581 µM). Moreover, the relative viability with AZD5582 (0.05 µM) is 0.564; with Temozolomide (0.2 µM) it was 1.01; in the assay with Temozolomide (0.6325 µM) it was 0.975; in the assay with Temozolomide (2 µM), 1.02; with Temozolomide (6.325 µM), 0.974; in the assay with Temozolomide (20 µM), 0.913.

For the origin of these results see the supplement of paper PMC10307832.
